Experimental data: a compilation of properties of binary mixtures (doi:10.1021/je300622r)

Assay: xn = mol fraction of the nth substance listed
Settings: 101 kPa

CCOS(=O)(=O)[O-].CC[n+]1ccn(C)c1 + O
viscosity (283.15 K, x2 = 0.0023): 242.3 mPa·s | viscosity (283.15 K, x2 = 0.1225): 171.3 mPa·s | viscosity (283.15 K, x2 = 0.427): 62.49 mPa·s | viscosity (283.15 K, x2 = 0.798): 14.52 mPa·s | viscosity (283.15 K, x2 = 0.8983): 6.801 mPa·s | viscosity (293.15 K, x2 = 0.1966): 81.3 mPa·s | viscosity (293.15 K, x2 = 0.427): 40.03 mPa·s | viscosity (293.15 K, x2 = 0.6124): 21.82 mPa·s | viscosity (293.15 K, x2 = 0.798): 10.01 mPa·s | viscosity (293.15 K, x2 = 0.8983): 4.853 mPa·s | viscosity (303.15 K, x2 = 0.0023): 81 mPa·s | viscosity (303.15 K, x2 = 0.1225): 62.11 mPa·s | viscosity (303.15 K, x2 = 0.1966): 52.09 mPa·s | viscosity (303.15 K, x2 = 0.427): 27.26 mPa·s | viscosity (303.15 K, x2 = 0.6124): 15.38 mPa·s | viscosity (303.15 K, x2 = 0.798): 7.24 mPa·s | viscosity (303.15 K, x2 = 0.8983): 3.618 mPa·s | viscosity (313.15 K, x2 = 0.0023): 52.62 mPa·s | viscosity (313.15 K, x2 = 0.1225): 41.51 mPa·s | viscosity (313.15 K, x2 = 0.1966): 35.42 mPa·s | viscosity (313.15 K, x2 = 0.427): 19.53 mPa·s | viscosity (313.15 K, x2 = 0.6124): 11.33 mPa·s | viscosity (313.15 K, x2 = 0.798): 5.453 mPa·s | viscosity (313.15 K, x2 = 0.8983): 2.793 mPa·s | viscosity (323.15 K, x2 = 0.0023): 36.24 mPa·s | viscosity (323.15 K, x2 = 0.1225): 29.17 mPa·s | viscosity (323.15 K, x2 = 0.1966): 25.3 mPa·s | viscosity (323.15 K, x2 = 0.6124): 8.663 mPa·s | viscosity (323.15 K, x2 = 0.798): 4.246 mPa·s | viscosity (323.15 K, x2 = 0.8983): 2.221 mPa·s | viscosity (333.15 K, x2 = 0.0023): 26.16 mPa·s | viscosity (333.15 K, x2 = 0.1225): 21.46 mPa·s | viscosity (333.15 K, x2 = 0.1966): 18.81 mPa·s | viscosity (333.15 K, x2 = 0.427): 11.24 mPa·s | viscosity (333.15 K, x2 = 0.6124): 6.824 mPa·s | viscosity (333.15 K, x2 = 0.798): 3.402 mPa·s | viscosity (333.15 K, x2 = 0.8983): 1.813 mPa·s | viscosity (343.15 K, x2 = 0.1225): 16.37 mPa·s | viscosity (343.15 K, x2 = 0.6124): 5.518 mPa·s | viscosity (343.15 K, x2 = 0.798): 2.791 mPa·s | viscosity (343.15 K, x2 = 0.8983): 1.518 mPa·s

CC[n+]1ccn(C)c1.COS(=O)(=O)[O-] + O
viscosity (278.15 K, x2 = 0.0023): 246.3 mPa·s | viscosity (278.15 K, x2 = 0.0887): 226 mPa·s | viscosity (278.15 K, x2 = 0.2235): 164.6 mPa·s | viscosity (278.15 K, x2 = 0.4163): 81.88 mPa·s | viscosity (278.15 K, x2 = 0.6106): 36.75 mPa·s | viscosity (278.15 K, x2 = 0.7999): 14.47 mPa·s | viscosity (278.15 K, x2 = 0.8948): 6.791 mPa·s | viscosity (288.15 K, x2 = 0.0887): 129.2 mPa·s | viscosity (288.15 K, x2 = 0.2235): 97.7 mPa·s | viscosity (288.15 K, x2 = 0.4163): 51.53 mPa·s | viscosity (288.15 K, x2 = 0.6106): 24.28 mPa·s | viscosity (288.15 K, x2 = 0.7999): 9.971 mPa·s | viscosity (298.15 K, x2 = 0.2235): 62.41 mPa·s | viscosity (298.15 K, x2 = 0.4163): 34.54 mPa·s | viscosity (298.15 K, x2 = 0.6106): 16.97 mPa·s | viscosity (298.15 K, x2 = 0.7999): 7.21 mPa·s | viscosity (298.15 K, x2 = 0.8948): 3.635 mPa·s | viscosity (308.15 K, x2 = 0.0023): 54.77 mPa·s | viscosity (308.15 K, x2 = 0.0887): 53.07 mPa·s | viscosity (308.15 K, x2 = 0.6106): 12.4 mPa·s | viscosity (308.15 K, x2 = 0.7999): 5.427 mPa·s | viscosity (318.15 K, x2 = 0.0887): 37.01 mPa·s | viscosity (318.15 K, x2 = 0.2235): 30.1 mPa·s | viscosity (318.15 K, x2 = 0.4163): 17.94 mPa·s | viscosity (318.15 K, x2 = 0.6106): 9.404 mPa·s | viscosity (318.15 K, x2 = 0.7999): 4.222 mPa·s | viscosity (318.15 K, x2 = 0.8948): 2.247 mPa·s | viscosity (328.15 K, x2 = 0.0887): 26.98 mPa·s | viscosity (328.15 K, x2 = 0.2235): 22.43 mPa·s | viscosity (328.15 K, x2 = 0.4163): 13.72 mPa·s | viscosity (328.15 K, x2 = 0.6106): 7.362 mPa·s | viscosity (328.15 K, x2 = 0.7999): 3.378 mPa·s | viscosity (328.15 K, x2 = 0.8948): 1.836 mPa·s | viscosity (338.15 K, x2 = 0.0023): 20.53 mPa·s | viscosity (338.15 K, x2 = 0.0887): 20.42 mPa·s | viscosity (338.15 K, x2 = 0.2235): 17.93 mPa·s | viscosity (338.15 K, x2 = 0.7999): 2.767 mPa·s | viscosity (338.15 K, x2 = 0.8948): 1.534 mPa·s
